15 compounds from patent US20240239814A1, “Complexes Of CU(I) As Antitumor Agents” (priority 2021, published 2024) can be followed below.

In data set [1] the test system is LoVo-OXP cells. Briefly: MTT cytotoxicity assay, 72 h, LoVo-OXP (oxaliplatin resistant). The format is cell-based, human. The following applies: MTT test, mean ± SD. From the text: (§1) Human breast (MCF-7), lung (H157), pancreatic (PSN-1) and colon (HCT-15 and LoVo) carcinoma cell lines were obtained from the American Type Culture Collection (ATCC, Rockville, MD). A431 are human cervical carcinoma cells kindly provided by Prof. F. Zunino (Molecular Pharmacology Unit, Experimental Oncology and Molecular Medicine, Istituto Nazionale dei Tumori, Milan, Italy). […] G. Marverti (Dept. of Biomedical Science, University of Modena, Italy).
(§2) Briefly, depending upon the growth characteristics of the cell line, 3-8×10^3 cells well^−1, were seeded in 96-well microplates in growth medium (100 μL) and then incubated at 37° C. in a 5% carbon dioxide atmosphere. After 24 h, the medium was removed and replaced with a fresh one containing the compound to be studied, at the appropriate concentration, dissolved in 0.9% sodium chloride solution just before use. Triplicate cultures were established for each treatment. After 72 h, each well was treated with 10 μL of a 5 mg mL^−1 MTT saline solution and, after 5 h of incubation, 100 μL of a sodium dodecylsulfate (SDS) solution in 0.01 M HCl were added. After an overnight incubation, the inhibition of cell growth induced by the tested complexes was determined by measuring the absorbance of each well at 570 nm using a Bio-Rad 680 microplate reader. Mean absorbance for each drug dose was expressed as percentage of the control and plotted vs. drug concentration. Dose-response curves were fitted and IC50 values were calculated with four parameter logistic model (4PL).
(§3) A LoVo cell line retaining a multidrug resistance phenotype was also considered (LoVo MDR). Cross-resistance profiles were evaluated by means of the resistance factor (RF), which is defined as the ratio between the IC50 value for the resistant cells and that arising from the sensitive cells (Table 3).
Cells (5×10^3 mL-1) were treated for 72 h with increasing concentrations of tested compounds. Cytotoxicity was assessed by MTT test. […] Resistant Factor (in brackets) is defined as IC50 resistant/parent line.
(In general: Formazan colour is commonly taken as a measure of viable cells.)

Data set [2] relates to human lung carcinoma cells H157. Briefly: MTT cytotoxicity assay, 72 h, H157. Format: cell-based. The following applies: MTT test, mean ± SD.
From the text: as §1, §2
(§4) The cytotoxicity was evaluated by means of the MTT test for 72 h treatment with increasing concentrations of the tested compounds.
(§5) Cytotoxic activity was examined against a panel of human tumor cell lines. […] The growth inhibitory effect was evaluated by means of MTT test. Cells (5-8×10^3 mL^−1, depending on the growth characteristics of the cell line) were treated for 72 h with increasing concentrations of tested compounds. […] SD=standard deviation, -=not detected.

Data set [3] has as its system human pancreatic carcinoma cells PSN-1. In words: MTT cytotoxicity assay, 72 h, PSN-1. The format is cell-based. The following applies: MTT test, mean ± SD.
From the text: as §1, §2, §4, §5

Data set [4] has as its system human colon carcinoma cells HCT-15. In words: MTT cytotoxicity assay, 72 h, HCT-15. The format is cell-based. The following applies: MTT test, mean ± SD.
From the text: as §1, §2, §4, §5

In data set [5] the test system is human cervical carcinoma cells A431. Briefly: MTT cytotoxicity assay, 72 h, A431. Format: cell-based. The following applies: MTT test, mean ± SD.
From the text: as §1, §2, §4, §5

The subject of data set [6] is human breast carcinoma cells MCF-7. In words: MTT cytotoxicity assay, 72 h, MCF-7. The format is cell-based. The following applies: MTT test, mean ± SD.
From the text: as §1, §2, §4, §5

In data set [7] the test system is LoVo MDR cells. Briefly: MTT cytotoxicity assay, 72 h, LoVo MDR (multidrug resistant). Format: cell-based, human. The following applies: MTT test, mean ± SD.
From the text: as §1, §2, §3
Cells (5×10^3 mL-1) were treated for 72 h with increasing concentrations of tested compounds. Cytotoxicity was assessed by MTT test. […] Resistant Factor (in brackets) is defined as IC50 resistant/parent line. […]

In data set [8] the test system is human ovarian cancer cells 2008. In words: MTT cytotoxicity assay, 72 h, 2008.
From the text: as §1, §2, §4, §5, §4, §5

For data set [9], the system named is human colon cancer cells LoVo. In words: MTT cytotoxicity assay, 72 h, LoVo. The format is cell-based. The following applies: MTT test, mean ± SD. On the procedure:
Triplicate cultures were established for each treatment.
. A LoVo cell line retaining a multidrug resistance phenotype was also considered (LoVo MDR). Cross-resistance profiles were evaluated by means of the resistance factor (RF), which is defined as the ratio between the IC50 value for the resistant cells and that arising from the sensitive cells (Table 3).
Cytotoxicity was assessed by MTT test. […]. Resistant Factor (in brackets) is defined as IC50 resistant/parent line.

Data set [10] concerns murine Lewis lung carcinoma (LLC). In words: In vivo anticancer activity toward Lewis lung carcinoma. The arrangement: species or system C57BL mice. The following applies: daily i.p. from day 9, measured at day 15, 6: 5 mg kg^−1, 9: 3 mg kg^−1, cisplatin: 1.5 mg kg^−1. On the procedure:
The mice were purchased from Charles River, Italy, housed in steel cages under controlled environmental conditions (constant temperature, humidity, and 12 h dark/light cycle), and alimented with commercial standard feed and tap water ad libitum. Animals were observed daily, and body weight and food intake recorded. The Lewis lung carcinoma (LLC) cell line was purchased from ECACC, UK. The LLC cell line was maintained in D-MEM (Euroclone) supplemented with 10% heat-inactivated FBS (Euroclone), 10 mM L-glutamine, 100 U mL^−1 penicillin, and 100 μg mL^−1 streptomycin in a 5% CO2 air incubator at 37° C. […] At day 15, animals were sacrificed, the legs were amputated at the proximal end of the femur, and the inhibition of tumor growth was determined according to the difference in weight of the tumor-bearing leg and the healthy leg of the animals expressed as % referred to the control animals. Body weight was measured every two days and was taken as a parameter for systemic toxicity. All the values are the means±S.D. of not less than three measurements. Multiple comparisons were made by Tukey-Kramer test (** p<0.01; * p or °p<0.05).
For the assessment of the adverse side effects, changes in body weights of tumor-bearing mice were monitored daily (FIG. 1).
Starting from day 9 after tumor implantation, tested compounds were daily administered i.p. At day 15, mice were sacrified and tumor growth was detected as described above.

[11] abbreviates: read-out: IC50 2008, MTT test, mean ± SD, Table 1.
[12] abbreviates: read-out: IC50 2008, MTT test, mean ± SD, Table 2.

Where two headings read alike, the source gives them in different places. Marks after values point to notes of the source that are not given here.

As for `O=C1[O][Pt]2([NH][C@@H]3CCCC[C@H]3[NH]2)[O]C1=O` [oxaliplatin, cyclohexane-1,2-diamineethanedioatoplatinum(II), reference compound], the IC50 came out at 17.5 ± 1.8 µM in [1]; 11.8 ± 3.2 µM in data set [2]; 16.1 ± 2.5 µM in data set [3]; 1.3 ± 0.3 µM in data set [4]; 3.7 ± 1 µM in data set [5]; 3.4 ± 1.2 µM in [6]. For the same compound, the IC50 in [7] is 1.4 ± 0.8 µM; in data set [8] (setting [11]), 1.7 ± 1 µM; in data set [8] (setting [12]) it was 1.7 ± 1 µM; in data set [9], 3.1 ± 0.3 µM.

As to `COCOc1ccccc1P(c1ccccc1)c1ccccc1.COCOc1ccccc1P(c1ccccc1)c1ccccc1.F[B-](F)(F)F.[Cu+]` [Compound 13, Bis[diphenyl(2-(methoxymethoxy)phenyl)phosphine] copper(I)tetrafluoroborate], in data set [8] (setting [12]), the IC50 turned out to be 1.5 ± 0.4 µM.

`F[B-](F)(F)F.Oc1ccccc1P(c1ccccc1)c1ccccc1.Oc1ccccc1P(c1ccccc1)c1ccccc1.[Cu+]` [Compound 12, Bis[diphenyl(2-hydroxyphenyl)phosphine] copper(I)tetrafluoroborate]: in data set [8] (setting [12]), the IC50 was determined as 1.1 ± 0.3 µM.

For “Bis[tris(phenylphosphine)] copper(I) nitrate [Compound 1]”, the IC50 in data set [1] is 0.3 ± 0.1 µM; in [2] it was 1.6 ± 0.1 µM; in data set [3] it was 4.5 ± 1.8 µM; in [4], 1.8 ± 0.8 µM; in data set [5], 0.2 ± 0.01 µM; in data set [6], 1.9 ± 0.7 µM. Further, the IC50 amounted to 0.5 ± 0.2 µM in data set [7], 2.2 ± 0.1 µM in [8] (setting [11]) and 0.4 ± 0.03 µM in [9].

For `F[B-](F)(F)F.O=C(O)c1ccccc1P(c1ccccc1)c1ccccc1.O=C(O)c1ccccc1P(c1ccccc1)c1ccccc1.[Cu+]` [Compound 10, Bis[2-(diphenylphosphanyl)benzoic acid]copper(I) tetrafluoroborate], the IC50 turned out to be 0.09 ± 0.03 µM in data set [1]; 0.9 ± 0.1 µM in data set [2]; 0.6 ± 0.01 µM in data set [3]; 1.8 ± 0.6 µM in data set [4]; 3.8 ± 1.1 µM in data set [5]; 1.1 ± 0.2 µM in [6]. Besides, the IC50 in data set [7] was 0.9 ± 0.4 µM; in data set [8] (setting [11]) it was 0.3 ± 0.1 µM; in data set [9] it was 1.5 ± 0.4 µM.

As to `COc1cccc2c1C(=O)c1c(O)c3c(c(O)c1C2=O)C[C@@](O)(C(=O)CO)C[C@@H]3O[C@H]1C[C@H](N)[C@H](O)[C@H](C)O1` [doxorubicin, reference compound], the IC50 in [7] (Homo sapiens, LoVo) came out at 19.4 ± 2.2 µM; in [9] (Homo sapiens, LoVo), 1.1 ± 0.5 µM.

Regarding `F[B-](F)(F)F.O=S(=O)(O)c1ccccc1P(c1ccccc1)c1ccccc1.O=S(=O)(O)c1ccccc1P(c1ccccc1)c1ccccc1.[Cu+]` [Compound 14, Bis[2-(diphenylphosphino]benzenesulfonic acid]copper(I) tetrafluoroborate], in data set [8] (setting [12]), the IC50 was determined as 0.8 ± 0.2 µM.

For “Bis[tris(thiomorpholineN- methyl)phosphine]copper(I) tetrafluoroborate [Compound 8]”, the IC50 amounted to 5.3 ± 1.2 µM in [2], 7.7 ± 1.3 µM in data set [3], 10.2 ± 0.1 µM in [4] and 11.9 ± 0.1 µM in data set [8] (setting [11]).

On to “Bis[tris(morpholineN- methyl)phosphine]copper(I) tetrafluoroborate [Compound 7]”, for which the IC50 was 0.4 ± 0.2 µM in [1]; 8.4 ± 1.8 µM in [2]; 12.3 ± 1.5 µM in [3]; 6.4 ± 0.5 µM in data set [4]; 15 ± 2.2 µM in data set [5]; 6.1 ± 1.5 µM in data set [6]. Moreover, the IC50 in data set [7] stood at 0.4 ± 0.3 µM; in data set [8] (setting [11]), 9.2 ± 1 µM; in data set [9], 0.6 ± 0.3 µM.

As for `COc1ccccc1P(c1ccccc1)c1ccccc1.COc1ccccc1P(c1ccccc1)c1ccccc1.F[B-](F)(F)F.[Cu+]` [Compound 11, Bis[diphenyl(2-methoxyphenyl)phosphine] copper(I)tetrafluoroborate], the “cytotoxicity against human ovarian cancer cells compared with cisplatin and oxaliplatin” value in data set [8] (2008 cells, MTT) is listed as “the most cytotoxic derivative”. In addition, the IC50 in data set [8] (setting [12]) was determined as 0.4 ± 0.3 µM.

As for “Bis[tris(4- fluorophenyl)phosphine] copper(I) nitrate [Compound 4]”, the IC50 was found to be 0.7 ± 0.1 µM in data set [1]; 0.9 ± 0.1 µM in [2]; 6.2 ± 0.9 µM in data set [3]; 1.1 ± 0.5 µM in data set [4]; 0.8 ± 0.6 µM in data set [5]; 1.4 ± 0.3 µM in data set [6]. The results for the IC50 in data set [7], in data set [8] (setting [11]) and in data set [9] were 1 ± 0.1 µM, 1.9 ± 0.5 µM and 0.9 ± 0.3 µM, respectively.

As to “Bis[tris(4- methoxyphenyl)phosphine] copper(I) nitrate [Compound 3]”, the IC50 is 1.2 ± 0.01 µM in [2]; 0.3 ± 0.2 µM in [4]; 3.1 ± 1.1 µM in data set [5]; 1.3 ± 0.4 µM in data set [6]; 0.9 ± 0.2 µM in [7]; 0.5 ± 0.1 µM in [8] (setting [11]).

On to “Bis[tris(N-methylpiperazineN′- methyl)phosphine]copper(I) tetrafluoroborate [Compound 5]”, for which the 50% inhibitory concentration (IC50) came out at 4.3 ± 1.2 µM in [2], 7.3 ± 1.4 µM in data set [3], 8 ± 2.6 µM in data set [4] and 5.2 ± 1.7 µM in [8] (setting [11]).

Regarding “Bis[tris(4- methylphenyl)phosphine] copper(I) nitrate [Compound 2]”, the IC50 in data set [1] was 1.3 ± 0.5 µM; in data set [2] it was 3.4 ± 0.2 µM; in data set [3] it was 0.3 ± 0.08 µM; in [4], 0.5 ± 0.2 µM; in [5], 3 ± 1.4 µM; in data set [6], 3.1 ± 0.6 µM. The results for the IC50 in data set [7], in [8] (setting [11]) and in data set [9] were 0.9 ± 0.6 µM, 1.3 ± 0.3 µM and 1.4 ± 0.1 µM, respectively.

Consider “Bis[tris(N-EthylpiperazineN′- methyl)phosphine]copper(I) tetrafluoroborate [Compound 6]”, for which the half-inhibitory concentration (IC50) worked out at 1.3 ± 0.5 µM in data set [1]; 3.8 ± 0.3 µM in data set [2]; 13.3 ± 3.2 µM in data set [3]; 2.5 ± 0.1 µM in [4]; 7.7 ± 0.5 µM in [5]; 3.1 ± 0.9 µM in data set [6]. Also, the IC50 in [7] worked out at 1.2 ± 0.9 µM; in [8] (setting [11]), 14.5 ± 1.2 µM; in data set [9], 0.7 ± 0.3 µM. Besides, in [10], the “Average tumor weight (mean ± SD, g)” value is 0.142 ± 0.09** g. For the same compound, the “Inhibition of tumor growth (%)” value in data set [10] (referred to control animals) was 75.9%.

What is called IC50 is the midpoint of a concentration-inhibition curve.
